Source: patent US11667602B2, “Compounds and their use” (AstraZeneca AB, priority 2020, dated 2023)

Biological target: T1, human RXFP1 (Homo sapiens, UniProt Q9HBX9)
T1 sequence (Q9HBX9 1-757): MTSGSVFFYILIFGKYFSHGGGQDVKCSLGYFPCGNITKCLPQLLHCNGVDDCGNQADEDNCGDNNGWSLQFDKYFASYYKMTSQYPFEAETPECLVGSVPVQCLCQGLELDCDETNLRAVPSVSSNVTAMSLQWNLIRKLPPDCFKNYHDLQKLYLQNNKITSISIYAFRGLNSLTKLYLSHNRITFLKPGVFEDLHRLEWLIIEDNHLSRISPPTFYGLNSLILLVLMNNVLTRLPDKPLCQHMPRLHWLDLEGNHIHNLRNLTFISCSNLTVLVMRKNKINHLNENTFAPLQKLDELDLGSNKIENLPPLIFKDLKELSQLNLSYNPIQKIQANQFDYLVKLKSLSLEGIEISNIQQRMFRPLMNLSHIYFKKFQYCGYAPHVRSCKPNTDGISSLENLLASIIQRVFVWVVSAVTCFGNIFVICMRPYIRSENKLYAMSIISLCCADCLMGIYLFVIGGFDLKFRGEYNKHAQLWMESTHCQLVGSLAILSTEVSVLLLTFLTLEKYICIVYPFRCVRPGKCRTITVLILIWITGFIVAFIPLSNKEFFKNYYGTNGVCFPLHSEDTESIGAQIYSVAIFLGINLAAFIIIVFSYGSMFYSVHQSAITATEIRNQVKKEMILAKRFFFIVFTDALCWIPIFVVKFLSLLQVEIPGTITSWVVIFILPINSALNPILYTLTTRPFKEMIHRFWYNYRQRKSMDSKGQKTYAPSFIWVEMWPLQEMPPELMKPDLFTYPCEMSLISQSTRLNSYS
Test: RXFP1 Hu cAMP (Test A)
Assay type: cell-based
Design: expressed in transfected cells; host or cells: Jump-In T-REx CHO-K1 cells (ThermoFisher), induced with 10 ng/ml doxycycline for 24 h
Details: RXFP1 Hu cAMP; for EC50: read-out: Test A EC50
Description: To screen for modulators of hRXFP1, an assay identifying compounds that stimulate cAMP production via the Gs-coupled hRXFP1 receptor was used. cAMP HiRange HTRF kit (available from CisBio Bioassays, France; catalogue number 62AM6PEJ) was employed in large according to manufacturer's recommendations for detection of cAMP. The HTRF method is a competitive immunoassay between native cAMP produced by cells and cAMP labeled with the dye d2. The tracer binding is visualized with a cryptate labeled antibody for cAMP and the signal is thus inversely proportional to the amount of produced cAMP.
Cells: Jump-In™ T-REx™ CHO-K1 Cells (ThermoFisher) stably transfected with human RXFP1 was employed. Cells were induced to express human RXFP1 by treatment with 10 ng/ml doxycycline for 24 h. Cells were then cryopreserved for long term storage.
HTRF detection reagents: cAMP-d2 and anti-cAMP cryptate reconstituted according to CisBio instructions were diluted 1:40 in lysis buffer provided with the HTRF-kit.
3. 4 μL assay buffer with 1 mM IBMX (0.5 mM final concentration) to block phosphodiesterases was added with Multidrop Combi (ThermoFisher).
6. 4 μL cAMP-d2 in lysis buffer was added with Multidrop Combi.
7. 4 μL anti-cAMP cryptate in lysis buffer was added with Multidrop Combi
8. 2 h incubation at room temperature
Using a cAMP standard curve, HTRF data was converted to amount cAMP produced in the samples which was subsequentially used for calculation of concentration responses. Concentration response data were fitted with a four parameter logistic fit, the Hill equation. The results from the assay are reported in Table 36 as EC50 (μM) and Sinf (%).
Where the assay was run multiple times for the same compound, the geometric mean is reported.
Sinf is the fitted activity level, efficacy, at infinite concentration of test compound. To facilitate comparison of efficacy data, efficacy was normalized to % effect of the response stimulated by a saturating concentration of relaxin (1 nM). Where the assay was run multiple times for the same compound, the arithmetic mean is reported.

| EC50 | Test A Sinf | Compound |
| --- | --- | --- |
| > 40000 nM |  | COc1cc(F)c(OC2CCC(CO)(C(=O)O)CC2)cc1C(=O)N[C@H]1[C@@H](C(=O)NCC2(C)CCC2)[C@H]2CC[C@@H]1O2 (relative stereo) [Example 533, (1R,4s)-4-(2-Fluoro-4-methoxy-5-(((1S*,2S*,3R*,4R*)-3-(((1-methylcyclobutyl)methyl)carbamoyl)-7-oxabicyclo[2.2.1]heptan-2-yl)carbamoyl)phenoxy)-1-(hydroxymethyl)cyclohexane-1-carboxylic acid] |
| 88 nM | 118% | COc1cc(C#N)c(O[C@H]2CC[C@@](C)(C(=O)O)CC2)cc1C(=O)Nc1cc(Cl)ccc1C(=O)NCC1CCCCCC1 [Example 157, (1s,4s)-4-(5-((5-Chloro-2-((cycloheptylmethyl)carbamoyl)phenyl)carbamoyl)-2-cyano-4-methoxyphenoxy)-1-methylcyclohexane-1-carboxylic acid] |
| 980 nM | 104% | COc1cc(F)c(OCc2ccc(C(C)(C)C(=O)O)cc2)cc1C(=O)N[C@H]1[C@@H](C(=O)Nc2cccc(S(=O)(=O)C(F)(F)F)c2)[C@@H]2C=C[C@H]1C2 (racemic) [Example 452] |
| 31 nM | 101% | COc1cc(F)c(O[C@H]2CC[C@@](C)(C(=O)O)CC2)cc1C(=O)N[C@@H]1[C@H]2OCO[C@H]2C[C@@H]1C(=O)Nc1cccc(S(=O)(=O)C(F)(F)F)c1 (racemic) [Example 395, (1R,4s)-4-(2-Fluoro-4-methoxy-5-(((3aRS,4SR,5SR,6aSR)-5-((3-((trifluoromethyl)sulfonyl)phenyl)carbamoyl)tetrahydro-4H-cyclopenta[d][1,3]dioxol-4-yl)carbamoyl)phenoxy)-1-methylcyclohexane-1-carboxylic acid] |
| 11000 nM | 100% | COc1cc(C#N)c(O[C@H]2CC[C@@](C)(C(=O)O)CC2)cc1C(=O)NC1C2CCC(CC2)C1C(=O)NCC1(C)CCC1 (single isomer, unassigned) [Example 538, (1R,4s)-4-(2-Cyano-4-methoxy-5-(((2S*,3R*)-3-(((1-methylcyclobutyl)methyl)carbamoyl)bicyclo[2.2.2]octan-2-yl)carbamoyl)phenoxy)-1-methylcyclohexane-1-carboxylic acid] |
| 110 nM | 104% | COc1cc(F)c(OC2CCC(N)(C(=O)O)CC2)cc1C(=O)N[C@@H]1[C@H]2CC[C@H](C2)[C@@H]1C(=O)Nc1cccc(S(=O)(=O)C(F)(F)F)c1 (stereo partly drawn) [Example 458, 1-Amino-4-(2-fluoro-4-methoxy-5-(((1S,2R,3S,4R)-3-((3-((trifluoromethyl)sulfonyl)phenyl)carbamoyl)bicyclo[2.2.1]heptan-2-yl)carbamoyl)phenoxy)cyclohexane-1-carboxylic acid] |
| 2600 nM | 77% | COc1cc(F)c(OCc2ccccc2C(=O)O)cc1C(=O)N[C@H]1[C@@H](C(=O)Nc2cccc(S(=O)(=O)C(F)(F)F)c2)[C@@H]2C=C[C@H]1C2 (racemic) [Example 448, rac-2-((2-Fluoro-4-methoxy-5-(((1R,2R,3S,4S)-3-((3-((trifluoromethyl)sulfonyl)phenyl)carbamoyl)bicyclo[2.2.1]hept-5-en-2-yl)carbamoyl)phenoxy)methyl)benzoic acid] |
|  | 105% | COc1cc(F)c(-c2cccc(C(=O)O)c2F)cc1C(=O)N[C@H]1[C@@H](C(=O)Nc2cccc(S(=O)(=O)C(F)(F)F)c2)[C@@H]2C=C[C@H]1C2 (racemic) [Example 233] |
| 340 nM | 106% | COc1cc(C#N)c(O[C@H]2CC[C@@](C)(C(=O)O)CC2)cc1C(=O)N[C@@H]1[C@H]2CC[C@H](C2)[C@@H]1C(=O)NC(C)(C)c1ccccc1 [Example 108] |
|  | 125% | COc1cc(F)c(O[C@H]2CC[C@H](S(N)(=O)=O)CC2)cc1C(=O)N[C@@H]1[C@@H]2CC[C@@H](C2)[C@@H]1C(=O)Nc1cccc(S(=O)(=O)C(F)(F)F)c1 [Example 462, (1S,2S,3R,4R)-3-(4-fluoro-2-methoxy-5-(((1r,4R)-4-sulfamoylcyclohexyl)oxy)benzamido)-N-(3-((trifluoromethyl)sulfonyl)phenyl)bicyclo[2.2.1]heptane-2-carboxamide] |
| 37 nM | 117% | COc1cc(F)c(O[C@H]2CC[C@@H](C(N)=O)CC2)cc1C(=O)N[C@@H]1[C@@H]2CC[C@@H](C2)[C@@H]1C(=O)Nc1cccc(S(F)(F)(F)(F)F)c1 [Example 511, (1S,2S,3R,4R)-3-(5-(((1s,4S)-4-Carbamoylcyclohexyl)oxy)-4-fluoro-2-methoxybenzamido)-N-(3-(pentafluoro-A6-sulfaneyl)phenyl)bicyclo[2.2.1]heptane-2-carboxamide] |
|  | 89% | COc1cc(F)c(O[C@H]2CC[C@](CC#N)(C(=O)O)CC2)cc1C(=O)N[C@@H]1[C@H]2CC[C@H](C2)[C@@H]1C(=O)NCC1(C)CCC1 [Example 423, (1R,4r)-1-(Cyanomethyl)-4-(2-fluoro-4-methoxy-5-(((1S,2R,3S,4R)-3-(((1-methylcyclobutyl)methyl)carbamoyl)bicyclo[2.2.1]heptan-2-yl)carbamoyl)phenoxy)cyclohexane-1-carboxylic acid] |
| 2900 nM | 44% | COc1cc(F)c([C@H]2CC[C@H](C(=O)O)CC2)cc1C(=O)N[C@@H]1[C@H]2CC[C@H](C2)[C@@H]1C(=O)Nc1cccc(S(=O)(=O)C(F)(F)F)c1 [Example 269, (1R,4r)-4-(2-fluoro-4-methoxy-5-(((1S,2R,3S,4R)-3-((3-((trifluoromethyl)sulfonyl)phenyl)carbamoyl)bicyclo[2.2.1]heptan-2-yl)carbamoyl)phenyl)cyclohexane-1-carboxylic acid] |
| > 40000 nM |  | COc1cc(F)c(-c2ccc(CCS(N)(=O)=O)cc2)cc1C(=O)N[C@H]1[C@H]2CC[C@H](C2)[C@H]1C(=O)Nc1cccc(S(=O)(=O)C(F)(F)F)c1 (single isomer, unassigned) [Example 327] |
| 910 nM | 82% | COc1cc(F)c(-c2ccc(C(=O)O)cc2)cc1C(=O)N[C@H]1[C@@H](C(=O)Nc2cc(F)cc(S(F)(F)(F)(F)F)c2)[C@@H]2C=C[C@H]1C2 (racemic) [Example 298] |
|  | 110% | COc1cc(F)c(-c2cncc(C(=O)O)c2)cc1C(=O)N[C@H]1[C@@H](C(=O)Nc2cccc(S(=O)(=O)C(F)(F)F)c2)[C@@H]2C=C[C@H]1C2 (racemic) [Example 228] |
| 530 nM | 97% | COc1cc(F)c(-c2ccc(OCC(=O)O)cc2)cc1C(=O)N[C@@H]1[C@H]2CC[C@H](C2)[C@@H]1C(=O)NCC(C)(C)C [Example 330, 2-((2′-Fluoro-4′-methoxy-5′-(((1S,2R,3S,4R)-3-(neopentylcarbamoyl)bicyclo[2.2.1]heptan-2-yl)carbamoyl)-[1,1′-biphenyl]-4-yl)oxy)acetic acid] |
| > 40000 nM |  | COc1cc(F)c(O[C@H]2CC[C@@](C)(C(=O)O)CC2)cc1C(=O)NC1COCCC1C(=O)Nc1ccc(F)c(S(F)(F)(F)(F)F)c1 (single isomer, unassigned) [Example 574, (1R,4s)-4-(2-Fluoro-5-(((3S*,4S*)-4-((4-fluoro-3-(pentafluoro-λ6-sulfaneyl)phenyl)carbamoyl)tetrahydro-2H-pyran-3-yl)carbamoyl)-4-methoxyphenoxy)-1-methylcyclohexane-1-carboxylic acid] |

| Compound | EC50 | Test A Sinf |
| --- | --- | --- |
| (1R,4s)-4-(2-Fluoro-4-methoxy-5-(((3S*,4R*)-4-(neopentylcarbamoyl)tetrahydrofuran-3-yl)carbamoyl)phenoxy)-1-(hydroxymethyl)cyclohexane-1-carboxylic acid [Example 579] |  | 120% |
